Read-outs that look alike come from different tables or passages of the source.
Tests used:
[1] = tested on: MDR1; assay: MDCK-MDR1 permeability assay; type: in vitro ADME; conditions: dog, MDCK-MDR1, pH 7.4; Papp(B-A)/Papp(A-B)
Experimental: (§1) Preparation of MDCK-MDR1 Cells. Cell culture medium of was added to each well of the Transwell insert (50 μL) and reservoir (25 mL). The HTS transwell plates were then incubated at 37° C., 5% CO2 for 1 hour before cell seeding. MDCK-MDR1 cells were diluted to 1.56×10^6 cells/mL with culture medium and 50 μL of cell suspension were dispensed into the filter well of the 96-well HTS Transwell plate. Cells were cultivated for 4-8 days in a cell culture incubator at 37° C., 5% CO2, 95% relative humidity. Cell culture medium was replaced every other day, beginning no later than 24 hours after initial plating.
(§2) Preparation of Stock Solutions. 10 mM stock solutions of test compounds were prepared in DMSO. The stock solutions of positive controls were prepared in DMSO at the concentration of 10 mM. Metoprolol, prazosin and imatinib were used as control compounds in this assay.
(§3) Assessment of Cell Monolayer Integrity. Medium was removed from the reservoir and each Transwell insert and replaced with prewarmed fresh culture medium. Transepithelial electrical resistance (TEER) across the monolayer was measured using Millicell Epithelial Volt-Ohm measuring system (Millipore, USA). The Plate was returned to the incubator once the measurement was done. TEER value should be greater than 42 ohm·cm2, which indicates the well-qualified MDCK-MDR1 monolayer. The TEER value was calculated according to the following equation: TEER measurement (ohms)×Area of membrane(cm^2)=TEER value(ohm·cm^2)
(§4) Assay Procedures. The MDCK-MDR1 plate was removed from the incubator and washed twice with pre-warmed HBSS (10 mM HEPES, pH 7.4), and then incubated at 37° C. for 30 minutes. The stock solutions of test compounds and controls were diluted in DMSO to get 1 mM solutions and then diluted with HBSS (10 mM HEPES, pH 7.4) to get 5 μM working solutions. The final concentration of DMSO in the incubation system was 0.5%.
(§5) To determine the rate of drug transport in the apical to basolateral direction, 125 μL of 5 μM working solution of test compound and control compound were added to the Transwell insert (apical compartment), and transfer 50 μL sample (DO sample) immediately from the apical compartment to a new 96-well plate. The wells in the receiver plate (basolateral compartment) were filled with 235 μL of HBSS (10 mM HEPES, pH 7.4). The assay was performed in duplicate.
(§6) To determine the rate of drug transport in the basolateral to apical direction, 285 μL of 5 μM working solution of test compound and control compound were to the receiver plate wells (basolateral compartment), and transfer 50 μL sample (DO sample) immediately from the basolateral compartment to a new 96-well plate. The wells in the Transwell insert (apical compartment) were filled with 75 μL of HBSS (10 mM HEPES, pH 7.4). The plates were incubated at 37° C. for 2 hours. At the end of the incubation, 50 μL samples from donor sides (apical compartment for Ap→Bl flux, and basolateral compartment for Bl→Ap) and receiver sides (basolateral compartment for Ap→Bl flux, and apical compartment for Bl→Ap) were transferred to wells of a new 96-well plate, followed by the addition of 4 volume of cold methanol containing appropriate internal standards (IS). Samples were Vortexed for 5 minutes and then centrifuged at 3,220 g for 40 minutes. An aliquot of 100 μL of the supernatant was mixed with an appropriate volume of ultra-pure water before LC-MS/MS analysis.
(§7) To determine the Lucifer Yellow leakage after 2 hour transport period, stock solution of Lucifer yellow was prepared in DMSO and diluted with HBSS (10 mM HEPES, pH 7.4) to reach a final concentration of 100 μM. Lucifer yellow solution (100 μL) was added to each Transwell insert (apical compartment), followed by filling the wells in the receiver plate (basolateral compartment) with 300 μL of HBSS (10 mM HEPES, pH 7.4). […]

[2] = MDCK-MDR1 permeability assay; type: in vitro ADME; conditions: dog, MDCK-MDR1, pH 7.4, 5 μM, 2 hours; for Papp A→B at 2 h, 5 μM: apical to basolateral; for Papp B→A at 2 h, 5 μM: basolateral to apical
Experimental: as §1, §2, §3, §4, §5, §6, §7

[3] = molecular target: β2 adrenergic receptor (Homo sapiens (Human), UniProt P07550); assay: cAMP Gs dynamic HTRF assay, β2 expressing CHO cells; type: cell-based
Chain of β2 adrenergic receptor (P07550 whole entry, species assumed): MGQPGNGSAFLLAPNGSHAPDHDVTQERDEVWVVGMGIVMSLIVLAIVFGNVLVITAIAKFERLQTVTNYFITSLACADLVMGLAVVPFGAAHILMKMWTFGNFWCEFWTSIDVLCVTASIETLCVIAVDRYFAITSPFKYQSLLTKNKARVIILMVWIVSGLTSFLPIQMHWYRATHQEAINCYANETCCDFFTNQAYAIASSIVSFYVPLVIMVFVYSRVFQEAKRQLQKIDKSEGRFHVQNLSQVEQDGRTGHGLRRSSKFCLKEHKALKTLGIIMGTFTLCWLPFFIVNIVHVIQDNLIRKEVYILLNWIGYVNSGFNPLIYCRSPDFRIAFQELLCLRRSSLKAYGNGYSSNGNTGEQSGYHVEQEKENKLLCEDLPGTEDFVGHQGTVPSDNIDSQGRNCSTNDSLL
How it was run: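 Intracellular cAMP quantified by Eu-donor/d2-acceptor HTRF after 30 min compound exposure at 37° C in stimulation buffer with IBMX. Concentrations ran 10 μM top, 5-fold steps, 10 points. Cell lines: 1321N1 astrocytoma and CHO expressing β1 or β2; EC50 via four-parameter fit, relative efficacy against isoproterenol.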

[4] = B2-AR, CHO-K cells, read-out: Average EC50 [Receptor subtype: B2-AR, Cell type: CHO-K]

Average pEC50 [Receptor subtype: B2-AR; Cell type: CHO-K1 (HitHunter)] ([3]; B2-AR, CHO-K1 (HitHunter)) | SMILES | efflux ratio at 2 h, 5 μM [1] | Papp A→B at 2 h, 5 μM [2] [×10⁻⁶ cm/s] | Papp B→A at 2 h, 5 μM [2] [×10⁻⁶ cm/s] | EC50 ([3]; cAMP HTRF, read-out: β2 EC50) [µM] | EC50 [3, 4] [µM] | EC50 ([3]; B2-AR, CHO-K1 (HitHunter), read-out: Average pEC50 [Receptor subtype: B2-AR, Cell type: CHO-K1 (HitHunter)] (converted)) [µM]
 | CC(C)(C)NC[C@H](O)c1cccc(C(F)(F)F)n1 [Compound 03-3] | 0.78 | 25.3 | 19.8 | < 0.01 |  | 
B-A | CC(C)(C)NC[C@H](O)c1cccc(C#N)n1 [Compound 03-5, (S)-6-(2-(tert-butylamino)-1-hydroxyethyl)picolinonitrile] | 1.06 | 15.2 | 16.2 |  | < 0.01 | 
 | Cc1ncccc1[C@@H](O)CNC(C)(C)C [Compound 03-115] | 1.58 | 6.96 | 11 |  | 0.01 to 0.1 | 0.01 to 0.1

Reference: patent US10947196B2, “Beta adrenergic agonist and methods of using the same” (CURASEN THERAPEUTICS, INC., priority 2019, dated 2021)
